Data on 73 compounds can be found in PubChem BioAssay AID449764 (Southern Research Specialized Biocontainment Screening …, 2010).

The structures appear in SMILES notation.

The test system of this assay is Mycobacterium tuberculosis H37Rv growth inhibition, no glycerol. Nature of the assay: Confirmatory growth inhibition assay, Mycobacterium tuberculosis H37Rv, absence of glycerol (AID 449764).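 For all read-outs here: growth read after 7 days of incubation.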 As to conditions: for IC90: measured here: IC90 growth inhibition.

Consider `O=C(N/N=C/c1cccc2cccnc12)[C@H]1C[C@@H]1c1ccccc1`, for which the IC50 was 38.2 µM and the IC90 is 56 µM.

With `COc1ccc(C2c3[nH]c4ccccc4c3CCN2C(=O)c2cc3ncccn3n2)c(F)c1` (stereo not drawn), the IC90 is over 100 µM.

As for `CC(C)(C)C(=O)/C(=C\c1cccc([N+](=O)[O-])c1)n1cncn1`, the IC50 was 3 µM and the IC90 came to 3.41 µM.

On to `Cc1ccnc(NC(=O)CCc2c[nH]c3ccccc23)c1`, for which the IC50 was 21.5 µM and the IC90 was 31.9 µM.

Turning to `O=C(NCCC1=CCCCC1)c1c(O)nc2sccn2c1=O`, the IC50 was 66 µM and the IC90 was over 100 µM.

`CCOC(=O)CSc1nnc(SCCN2C(=O)c3ccccc3C2=O)s1`: the IC50 was 8.73 µM and the IC90 was 22.4 µM.

For `C[Se]C[C@@H](N)C(=O)O`, the IC50 was 89.4 µM and the IC90 turned out to be 95.7 µM.

On to `O=C(Nc1ncc(Cc2ccccc2Cl)s1)C1=NCCN1`, for which the IC50 is 23.7 µM and the IC90 was over 100 µM.

On to `O=C(C[C@@H]1C/C=C\C[C@H](NC(=O)OCC2c3ccccc3-c3ccccc32)C(=O)OC[C@H]2CCCN2C1=O)N[C@@H](CO)Cc1ccccc1`, for which the IC50 is 27.3 µM and the IC90 came out at 37.2 µM.

With `CSCCOC(=O)COc1ccc(/C=N/NC(=O)c2c(Cl)cnn2C)cc1`, the IC50 was 19.6 µM and the IC90 turned out to be 37.7 µM.

As for `Cc1cc(N/N=C2/CCCc3ccccc32)nc2ccccc12`, the IC50 was 41.9 µM and the IC90 was 45.6 µM.

Regarding `COc1ccc(C2c3[nH]c4ccccc4c3CCN2Cc2cccn2-c2ncccn2)cc1C` (stereo not drawn), the IC50 is 36.4 µM and the IC90 amounted to 47 µM.

Turning to `CSc1nsc(SCC(=O)Nc2ccc(F)cc2F)n1`, the IC50 was 88.7 µM and the 90% effect concentration (IC90) came to 98.9 µM.

In the case of `CCOC1OC(=O)C(Cl)=C1Nc1ccccc1C` (stereo not drawn), the IC50 is 3.39 µM and the IC90 was found to be 7.24 µM.

For the compound `NC(N)=Nc1nc(-c2ccccc2)c2ccccc2n1`, the IC50 is 90.1 µM and the IC90 is over 100 µM.

Consider `NNc1nc2ccc(Cl)cc2s1`, for which the IC50 was 62.4 µM and the IC90 was determined as 70.6 µM.

With `Cc1ccc(S(=O)(=O)n2ccc3c(OCCOCCNCc4ccc(F)cc4)cccc32)cc1`, the IC50 is 23 µM and the IC90 was found to be 26 µM.

With `CC(C)(C)c1ccc(C(=O)NC(=S)NNC(=O)COc2ccccc2)cc1`, the IC50 is 28.8 µM and the IC90 stood at 42.9 µM.

For `CCOC(=O)c1c(NC(=O)CSc2nc3ccc(OC)cc3[nH]2)sc2c1CC(C)(C)NC2(C)C`, the IC50 was 39.7 µM and the IC90 came out at 53.7 µM.

For the compound `Cc1ccc(NC(=O)COC(=O)C(NS(=O)(=O)c2ccc(Cl)cc2)C(C)O)cc1C` (stereo not drawn), the IC50 was 16.1 µM and the IC90 stood at 36.2 µM.

`Cc1cncn1CCc1nc2c3ccccc3nc(SCC(=O)Nc3cccc(Cl)c3)n2n1`: the IC50 is 27.4 µM and the IC90 is 31.9 µM.

For `CC(C)Oc1ccc(-c2nc(NCC3CCCO3)c3ccccc3n2)cc1` (stereo not drawn), the IC50 is 62.3 µM and the IC90 was 98.3 µM.

Turning to `COc1cc2c(cc1OC)C(c1cc(Br)ccc1F)N(C(=O)CCl)CC2` (stereo not drawn), the IC50 is 16.6 µM and the IC90 was determined as 23 µM.

Regarding `NC(=S)NNc1ccc(Cl)c(Cl)c1`, the IC50 was 7.82 µM and the IC90 amounted to 12.1 µM.

Turning to `O=C(NCC(c1cccs1)N1CCOCC1)c1cc([N+](=O)[O-])cc([N+](=O)[O-])c1` (stereo not drawn), the 50% inhibitory concentration (IC50) is 0.81 µM and the IC90 was 1.5 µM.

With `CC(C)NC(=S)N/N=C/c1c[nH]c2ccccc12`, the IC90 is over 100 µM.

`CC(=O)c1ccc(N2CCC(c3cc(-c4ccc(Cl)cc4Cl)n[nH]3)CC2)c([N+](=O)[O-])c1`: the IC50 is 24.3 µM and the IC90 is over 100 µM.

Take `Cc1nc2ccc(OC(=O)c3ccccc3)cc2s1`: the IC50 was 88.1 µM and the IC90 was over 100 µM.

As to `O=C(Nc1cc(N2CCOCC2)ncn1)NC1(C(F)(F)F)Oc2ccc(Cl)cc2O1` (stereo not drawn), the IC50 was 23.6 µM and the IC90 amounted to 26.9 µM.

As for `O=C(NNC(=O)C12CC3CC(CC(C3)C1)C2)c1ccccn1`, the IC50 was 21.8 µM and the IC90 came out at 24.4 µM.

On to `O=C1Nc2ccc(Br)cc2/C1=C/C(=O)c1ccc2c(c1)OCO2`, for which the IC50 is 18.1 µM and the IC90 is 23.7 µM.

For `O=C(/C=C/c1ccco1)Oc1ccc(C(=S)N2CCOCC2)cc1`, the IC50 was 60.3 µM and the IC90 is over 100 µM.

As to `CCN(CC)S(=O)(=O)c1ccc(/C=C/C(=O)OCC#N)cc1`, the IC50 was 23.3 µM and the IC90 was determined as 47.2 µM.

For the compound `CC(C)=CCOc1ccc([C@@H]2COc3c(ccc4c3C=CC(C)(C)O4)C2)c(O)c1`, the IC50 was 25.4 µM and the IC90 worked out at 43 µM.

The compound `CCCCC(=O)/C=C/n1c(=S)oc2ccccc21` came in with an IC90 of over 100 µM.

Regarding `O=C(c1ccccc1)c1ccc(OCCOCCN2CCN(Cc3ccccc3)CC2)cc1`, the IC50 is 24 µM and the IC90 came to 27.5 µM.

Take `COc1cc2c(cc1OC)CN(CCC(=O)c1ccc(Br)cc1)CC2`: the IC50 was 23.4 µM and the IC90 was 26.7 µM.

Regarding `CCOC(=O)C1(CCOc2ccccc2)CCN(Cc2cccc(-n3cccn3)c2)CC1`, the IC50 is 28.1 µM and the IC90 was 34.5 µM.

As for `CC1(C)Cc2ccccc2C2=NNC(=O)C2=N1`, the IC50 is 11.2 µM and the 90% effect concentration (IC90) came out at 15.1 µM.

Turning to `Cc1ccc(/C=C2\SC(N3CCCC3)=NC2=O)cc1`, the IC50 is 0.74 µM and the IC90 was determined as 4.62 µM.

With `CSc1nn(-c2ccc(C(=O)OCC(=O)NC(=O)NC(C)C)cc2)c(=S)s1`, the IC50 is 35.7 µM and the IC90 amounted to 48.9 µM.

Consider `Cc1cc(C)nc(-n2nc(C)cc2NC(=O)CN2CCC(C)CC2)n1`, for which the half-inhibitory concentration (IC50) is 16.4 µM and the IC90 came to 35.3 µM.

With `CC(=O)c1ccc(Sc2nnnn2-c2ccccc2)c([N+](=O)[O-])c1`, the IC50 was 19.8 µM and the IC90 came out at 31.8 µM.

On to `O=C(NCCN1CCN(c2cccc(Cl)c2)CC1)c1ccc(CSc2nc3ccncc3[nH]2)cc1`, for which the IC50 is 21.8 µM and the IC90 was 32.1 µM.

Turning to `CN1CCN(Cn2cc(/C=C/C(=O)c3ccccc3)c3ccccc32)CC1`, the IC50 was 19.8 µM and the IC90 is 39.3 µM.

On to `Nc1c(C(=O)NC2CCCCC2)nsc1C(=O)OCC(=O)NC1CCCCC1`, for which the IC50 was 2.89 µM and the IC90 was 3.4 µM.

As to `Cc1ccc(C)c(N2CCN(C(=S)Nc3ccc4nc(N5CCN(C)CC5)cc(C)c4c3)CC2)c1`, the IC50 was 35.7 µM and the IC90 was 55.9 µM.

As to `Cc1cc2c(ccc3c2no[n+]3[O-])nn1`, the IC50 is 17.4 µM and the IC90 stood at 22.8 µM.

For `O=C(N/N=C\c1ccc[nH]1)c1cncc(Br)c1`, the IC50 was 45.3 µM and the IC90 came to 50.8 µM.

With `CC(=O)n1cc(/C=C2/N=C(c3ccccc3)OC2=O)c2ccccc21`, the IC50 is 43.4 µM and the IC90 was over 100 µM.

Consider `O=C1Nc2ccccc2/C1=N\N=C\C1=C(N2CCOCC2)C(=C\c2ccccc2)/CC1`, for which the IC50 was 36.5 µM and the IC90 is over 100 µM.

Regarding `CN(CCCC1CCCC1)C(=O)CCc1nnc(-c2ccccc2)o1`, the IC50 is 16.9 µM and the 90% effect concentration (IC90) is 28 µM.

As to `CN1/C(=C/C(=O)c2nc(S(C)(=O)=O)ncc2Cl)C(C)(C)c2ccccc21`, the IC50 was 6.77 µM and the IC90 turned out to be 13.1 µM.

As for `NNC(=S)Nc1ccccc1Cl`, the IC50 is 83.8 µM and the IC90 amounted to 93 µM.

For the compound `Oc1cccc(-c2nc3ccc4ccccc4c3c3c2CCC3)c1`, the IC50 is 32.4 µM and the IC90 is 54.3 µM.

As for `N#Cc1ccc(OCC(O)CN2CCN(c3ncc(C(F)(F)F)cc3Cl)CC2)cc1` (stereo not drawn), the IC50 was 15.4 µM and the IC90 amounted to 24.3 µM.

With `Clc1ccc(C(Cn2ccnc2)OCc2csc3c(Cl)cccc23)c(Cl)c1` (stereo not drawn), the IC50 was 17.7 µM and the IC90 amounted to 23.9 µM.

Take `CC(C)(C)c1ccc(-c2nc(-c3ccncc3)no2)cc1`: the IC50 was 35.2 µM and the IC90 stood at 47.6 µM.

For `O=C(OCC(=O)c1cccs1)C1=COCCO1`, the IC50 was 29.9 µM and the IC90 was over 100 µM.

With `COC1=CC(=O)c2ccccc2C1=O`, the IC50 is 22.8 µM and the IC90 came to 24.6 µM.

For the compound `CCOC(=O)c1ccc(N=C2C(=S)N(c3ccc(C(=O)OCC)cc3)C(=N)N2/N=C/c2ccccc2)cc1`, the IC50 was 99.7 µM and the IC90 was over 100 µM.

Regarding `CCCCOc1ccc(C(=O)N/N=C/c2ccc(OCCN3CCCCC3)c(OC)c2)cc1`, the IC50 was 43.3 µM and the IC90 came to 47.8 µM.

As for `CC(C)(C)C1CCc2nc(NC(=O)Cc3cn4ccsc4n3)sc2C1` (stereo not drawn), the IC50 is 24.3 µM and the IC90 worked out at 35.4 µM.

Regarding `O=C(CSc1nnnn1C1CCCCC1)Nc1nc2c(s1)CCCC2`, the IC50 was 46.9 µM and the IC90 was determined as 53.1 µM.

On to `Cc1ccc(/C=C/S(=O)(=O)NCC(=O)OCC(=O)Nc2c(F)cccc2F)cc1`, for which the IC50 is 22.9 µM and the IC90 worked out at 41.3 µM.

Regarding `Cc1nc(NC(=O)c2ccccc2)sc1C1(C)CC(c2ccc(OC(F)(F)F)cc2)=NO1` (stereo not drawn), the IC50 is 29.7 µM and the IC90 amounted to 60.4 µM.

On to `Cc1[nH]n(-c2ccccc2)c(=O)c1C(C[N+](=O)[O-])c1ccccc1Cl` (stereo not drawn), for which the IC50 was 23.4 µM and the IC90 is 27.1 µM.

Turning to `Cn1nc(-c2ccccn2)nc2c(=O)n(C)c(=O)nc1-2`, the IC50 was 12.5 µM and the IC90 is 13 µM.

For the compound `COc1ccc(-c2cc3nc(CCl)[nH]c(=O)c3s2)cc1`, the IC50 is 5.94 µM and the IC90 is 6.45 µM.

Take `CCn1cc(Br)c(C(=O)Nc2ccc(C(=O)OC(C)C)cc2)n1`: the IC50 was 39.3 µM and the IC90 came out at 59.5 µM.

For `Cc1ccnc(NC(=O)COc2ccc3c(c2)CCC3)c1`, the IC50 was 85.7 µM and the IC90 was over 100 µM.

Turning to `Cc1nn(Cc2ccccc2Cl)c2sc(C(=O)NCCCn3ccnc3)cc12`, the IC50 is 37.4 µM and the IC90 is 56 µM.

As for `COc1ccc(C(CC(=O)c2ccccc2)S(=O)(=O)c2ccc(C)cc2)cc1` (stereo not drawn), the IC50 was 56.3 µM and the IC90 was determined as 92.2 µM.
